Values of other authors in patent EP3964225A1 (priority 2020, dated 2022).

System: B cell growth
Conditions: eight p17 peptides tested

Sequence: GARASVLSGGELDRWEKIRL [peptide F1, p17-derived peptide, aminoacids 2 to 21 of p17]
- cell growth promoting activity: the only one endowed with cell growth promoting activity
